The pEC50 is −log10 of the EC50, conventionally taken in molar units. A lower pEC50 goes with a high EC50.

Our source for the IC50 and EC50 values is patent US9315475B2 (MERCK SHARP & DOHME CORP., priority 2011, dated 2016).

The target of assay [1] is T1, wildtype HIV-1 protease (Human immunodeficiency virus type 1 group M subtype B, UniProt P04585).
T1 construct: the wildtype HIV-1 protease (which was expressed in Escherichia coli); made in house; host or cells: Escherichia coli
The assay is described as follows: Assay for inhibition of microbial expressed HIV protease (Pepcleav). The assay is classed as biochemical. Particulars: wild type HIV-1 protease expressed in E. coli, peptide substrate, pH 5.5; mean of at least two independent experiments; read-out: Pepcleav. The method in brief:
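E. coli-expressed wild-type HIV-1 protease (20 pM) preincubated 30 min at room temperature with inhibitor in pH 5.5 sodium acetate/NaCl/BSA buffer, then 400 μM Val-Ser-Gln-Asn-(βnaphthyl)Ala-Pro-Ile-Val added for 1 h at 30 °C. Quenched with formic acid; product quantified by LC-MS/MS peak area, indinavir internal standard.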

Assay [2] has as its system HIV-1 (H9IIIB strain). The assay is described as follows: Antiviral acute infection assay in cell culture (Spread). The assay is classed as cell-based. Particulars: Human immunodeficiency virus 1, T-lymphoid, HIV-1 H9IIIB infection of MT-4 human T-lymphoid cells in 10% FBS; mean of at least two independent experiments. The text has this:
Antiviral Assays in Cell Culture (“Spread”)
Acute Infection Assay (“Spread”) data were generated using HIV-1 (H9IIIB strain) infection of MT-4 human T-lymphoid cells in 10% FBS, and according to the methods disclosed by J. P. Vacca et al, “L-735,524: An orally bioavailable human immunodeficiency virus type 1 protease inhibitor,” Proc. Natl. Acad. Sci. USA, Vol. 91, pp. 4096-4100 (April 1994).

pEC50, pIC50: −log10 of the molar value.

On to `N[C@H](C(=O)Nc1cncc(F)c1CC[C@@H]1CN[C@H](COC(=O)NCC(F)(F)F)CO1)[C@H](c1ccc(F)cc1)c1cccc(Cl)c1` [Example 266, (βR)-3-chloro-β-(4-fluorophenyl)-N-(5-fluoro-4-{2-[(2R,5S)-5-({[(2,2,2-trifluoroethyl)carbamoyl]oxy}methyl)morpholin-2-yl]ethyl}pyridin-3-yl)-L-phenylalaninamide], for which the pIC50 in assay [1] was 8.51. For the same molecule, in assay [2], the pEC50 was 7.30.
Take `N[C@H](C(=O)Nc1cncc(F)c1CC[C@@H]1CN[C@H](COC(=O)NCC(F)(F)F)CO1)[C@H](c1ccccc1)c1ccc(Cl)cc1` [Example 95, (βR)-β-(4-Chlorophenyl)-N-(5-fluoro-4-{2-[(2R,5S)-5-({[(2,2,2-trifluoroethyl)carbamoyl]oxy}methyl)morpholin-2-yl]ethyl}pyridin-3-yl)-L-phenylalaninamide]: in assay [1], the pIC50 was 9.40. Moreover, the pEC50 in assay [2] was 7.80.
Regarding `N[C@H](C(=O)Nc1cccc(F)c1CC[C@@H]1CN[C@H](COC(=O)NCC(F)(F)F)CO1)[C@H](c1ccc(F)cc1)c1ccc(F)c(F)c1` [Example 270, (βR)-β-(3,4-difluorophenyl)-4-fluoro-N-(3-fluoro-2-{2-[(2R,5S)-5-({[(2,2,2-trifluoroethyl)carbamoyl]oxy}methyl)morpholin-2-yl]ethyl}phenyl)-L-phenylalaninamide], in assay [1], the pIC50 was 8.68. This molecule had a pEC50 in assay [2] of 7.66.
The corresponding values for `CN1CCC(NC(=O)OC[C@@H]2CO[C@H](CCc3c(F)cncc3NC(=O)[C@@H](N)C(c3ccc(F)cc3)c3ccc(F)cc3)CN2)C1=O` (stereo partly drawn) [Example 252, 4-fluoro-N-(5-fluoro-4-{2-[(2R,5S)-5-({[(1-methyl-2-oxopyrrolidin-3-yl)carbamoyl]oxy}methyl)morpholin-2-yl]ethyl}pyridin-3-yl)-β-(4-fluorophenyl)-L-phenylalaninamide] are 8.11 and 6.80.
Turning to `NC(=O)OC[C@@H]1CO[C@H](CCc2c(F)cccc2NC(=O)C[C@@H](c2ccc(F)cc2)c2ccc(F)cc2F)CN1` [Example 156, {(3S,6R)-6-[2-(2-{[(3S)-3-(2,4-difluorophenyl)-3-(4-fluorophenyl)propanoyl]amino}-6-fluoro-phenyl)ethyl]morpholin-3-yl}methyl carbamate], in assay [1], the pIC50 is 8.00. The molecule also gave a pEC50 in assay [2] of 7.59.
On the same counts, the results for `COC(=O)N[C@H](C(=O)Nc1cncc(F)c1CC[C@@H]1CN[C@H](COC(=O)NCC(F)(F)F)CO1)[C@H](c1ccccc1)c1ccc(OC(F)(F)F)cc1` [Example 291, (βR)-N-(5-fluoro-4-{2-[(2R,5S)-5-({[(2,2,2-trifluoroethyl)carbamoyl]oxy}methyl)morpholin-2-yl]ethyl}pyridin-3-yl)-Nα-(methoxycarbonyl)-β-phenyl-O-(trifluoromethyl)-L-tyrosinamide] are 7.55 and 6.96.
The corresponding values for `COC(=O)N[C@H](C(=O)Nc1cccc(F)c1CC[C@@H]1CN[C@H](COC(=O)NCC(F)(F)F)CO1)[C@H](c1ccc(F)cc1)c1ccc(OC)cc1` [Example 299, (βS)-β-(4-fluorophenyl)-N-(3-fluoro-2-{2-[(2R, 5S)-5-({[(2,2,2-trifluoroethyl)carbamoyl]oxy}methyl)morpholin-2-yl]ethyl}phenyl)-Nα-(methoxy-carbonyl)-O-methyl-L-tyrosinamide] are 7.82 and 7.49.
As for `O=C(C[C@H](c1ccccc1)c1ccc(Cl)cc1)Nc1cccc(F)c1CC[C@@H]1CN[C@H](COC(=O)NCC(F)(F)F)CO1` [Example 150, {(3S,6R)-6-[2-(2-{[(3R)-3-(4-chlorophenyl)-3-phenylpropanoyl]amino}-6-fluorophenyl)ethyl]morpholin-3-yl}methyl (2,2,2-trifluoroethyl) carbamate], the pIC50 in assay [1] is 7.96. The molecule further gave a pEC50 in assay [2] of 6.89.
